Data taken from ChEMBL document CHEMBL1134188, “Evidence for gliotoxin-glutathione conjugate adducts” (Bioorg Med Chem Lett, 2001).

Assay: The equilibrium constant pair at a pH of 7.0 and temperature of 25 degree Centigrade
Conditions: pH 7

In the case of `CN1C(=O)[C@]23CC4=CC=C[C@H](O)[C@H]4N2C(=O)[C@@]1(CO)SS3.N[C@@H](CS)C(=O)O` [GLIOTOXIN/CYSTEINE], the Keq is reported as 400 M⁻¹.
